Experiments:
Settings in all cases: 48 h
NCI-H295R [1] = experiment: AC50 viability; higher = less potent
Outline: (§1)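 Concentration-response curves were fitted to obtain AC50 and area under the curve, keeping inhibitory or non-responding curve classes only. Data came from CellTiter-Glo luminescence, normalised per plate to vehicle and empty-well controls, in three adrenocortical carcinoma cell lines. These were treated in 1,536-well plates with library compounds at 11 concentrations and read after 48 h.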

CU-ACC2 [2] = experiment: AC50 viability; higher = less potent
Outline: as §1

CU-ACC1 [3] = experiment: AC50 viability; higher = less potent
Outline: as §1

NCI-H295R [4] = experiment: area under concentration-response curve (viability) (AUC (a.u.)); higher = less active
Outline: as §1

CU-ACC2 [5] = experiment: as above
Outline: as §1

CU-ACC1 [6] = experiment: as above
Outline: as §1

SMILES	AC50 viability (NCI-H295R [1]) [µM]	AC50 viability (CU-ACC2 [2]) [µM]	AC50 viability (CU-ACC1 [3]) [µM]	area under concentration-response curve (NCI-H295R [4])	area under concentration-response curve (CU-ACC2 [5])	area under concentration-response curve (CU-ACC1 [6])
CCCCc1nc2cc(/C=C/C(=O)NO)ccc2n1CCN(CC)CC	1.48	5.9	1.66	453	405	416
CNCc1ccc(C)c(NC(=O)c2ccc(Nc3nc(-c4ccccc4)c4ccccc4n3)cc2)c1	18.6	23.5	16.6	521	575	471
Cc1cc(Nc2ncc3c(n2)N(C)C(=O)N(c2cc(NC(=O)c4cccc(C(F)(F)F)c4)ccc2C)C3)n(C)n1	7.42	2.63	11.8	512	483	468
CN1CCCN(C(=O)c2cccc(-c3ccc(/C=C4/C(=O)Nc5ccc(Cl)cc54)o3)c2)CC1	20.9	23.5	29.5	361	379	392
N[C@@H](Cc1ccc(N(CCCl)CCCl)cc1)C(=O)O	9.34	9.34	10.5	385	303	267
CC1(C)CC(=O)c2c(C(F)(F)F)nn(-c3ccc(C(N)=O)c(NC4CCC(OC(=O)CN)CC4)c3)c2C1 (centres undefined)	1.05	0.417	1.05	431	426	362
COC1=CC2=C(C=C1CC3=C(F)C(=CC=C3)Cl)C(=O)\C(=C/N2[C@H](CO)C(C)C)C(O)=O	20.9	14.8	16.6	509	528	405
CC(C)C[C@H](NC(=O)CNC(=O)c1cc(Cl)ccc1Cl)B1OC(=O)CC(CC(=O)O)(C(=O)O)O1 (some centres undefined)	0.372	0.332	0.263	413	380	302
Cc1cc2c(C(N)=O)cccc2n1-c1nc2c(c(NCc3ccccc3)n1)COCC2	2.63	2.09	3.32	436	467	306
COc1cc(N[S+](C)(=O)[O-])ccc1Nc1c2ccccc2nc2ccccc12	13.2	7.42	13.2	420	409	299
COc1cc(CCc2cc(NC(=O)c3ccc(N4C[C@@H](C)N[C@@H](C)C4)cc3)n[nH]2)cc(OC)c1	9.34	11.8	10.5	477	522	445
Nc1ncccc1-c1nc2ccc(-c3ccccc3)nc2n1-c1ccc(C2(N)CCC2)cc1	5.9	16.6	8.33	408	437	354
COc1cc(Nc2c(C#N)cnc3cc(OCCCN4CCN(C)CC4)c(OC)cc23)c(Cl)cc1Cl	7.42	8.33	5.9	430	451	412
CN1CC[C@H]([C@@H](O)C1)C2=C(O)C=C(O)C3=C2O\C(=C/C3=O)C4=CC=CC=C4Cl	1.32	0.417	0.833	352	392	346
O=C(/C=C/c1cccc([S+](=O)([O-])Nc2ccccc2)c1)NO	3.72	5.25	3.72	404	429	362
Fc1cc(-c2cccc3ncc(-c4cnn(C5CCNCC5)c4)nc23)cc(F)c1CN1CCOCC1	8.33	13.2	11.8	428	437	390
CC[C@H]1CN2CCc3cc(OC)c(OC)cc3[C@@H]2C[C@@H]1C[C@H]1NCCc2cc(OC)c(OC)cc21	1.66	0.934	0.59	412	463	366
CC(O)(C#Cc1ccc2c(c1)N(c1nc(N)ncc1Cl)CC2)c1nccs1 (centres undefined)	16.6	18.6	14.8	507	560	494
COc1ccc2c(c[n+](C)c3c4cc5c(cc4ccc23)OCO5)c1OC	20.9	33.2	20.9	402	465	445
Cc1ccc(NC(=O)NCc2ccc3c(c2)CN(C2CCC(=O)NC2=O)C3=O)cc1Cl (centres undefined)	0.0166	0.0332	0.00372	234	289	137
CO[C@H]1CC[C@H](N2C(=O)CNc3ncc(-c4ccc(C(C)(C)O)nc4)nc32)CC1	18.6	18.6	16.6	502	570	462
NC1=C(Cl)C(=CC=N1)OC2=C(F)C=C(NC(=O)\C3=C\N\C=C(C3=O)\C4=CC=C(F)C=C4)C=C2	13.2	16.6	14.8	490	502	437
CC(C)c1ccc(Cn2ccc3c4c(N)nc(NC5CC5)nc4ccc32)cc1	2.95	2.95	7.42	335	399	327
NC(=O)/C(=C/n1cnc(-c2cc(C(F)(F)F)cc(C(F)(F)F)c2)n1)c1cncnc1	9.34	5.9	11.8	438	459	322
COc1ccc(F)c(F)c1C(=O)c1cnc(NC2CCN([S+](C)(=O)[O-])CC2)nc1N	4.68	1.48	2.35	435	364	409
CCCCCCCCc1ccc(CCC(N)(CO)CO)cc1	11.8	8.33	10.5	395	384	357
OCCNC1CCCc2c1[nH]c1ccc(-c3ccccc3)cc21 (centres undefined)	10.5	23.5	20.9	456	526	462

SMILES	AC50 viability (NCI-H295R [1]) [µM]	AC50 viability (CU-ACC2 [2]) [µM]	AC50 viability (CU-ACC1 [3]) [µM]	area under concentration-response curve (NCI-H295R [4])	area under concentration-response curve (CU-ACC2 [5])	area under concentration-response curve (CU-ACC1 [6])
CN(C)c1ccc(C(=O)NCCCCCCC(=O)NO)cc1	5.25	4.17	4.68	444	450	348
NC(CO)(CO)CCc1ccc(Sc2cccc(OCc3ccccc3)c2)cc1Cl	10.5	18.6	14.8	449	491	423
CO/C1=C/C(C)=C\[C@@H](C)[C@@H](O)[C@@H](C)C/C(C)=C\C=C/[C@H](OC)[C@@H]([C@@H](C)[C@@H](O)[C@H](C)[C@@]2(O)C[C@@H](O)[C@H](C)[C@@H](C(C)C)O2)OC1=O	2.48	0.0393	0.0312	443	365	388
CCN(CC)CCOC1=CC=C(NC2=NC=C3\C=C(/C(=O)N(C)C3=N2)C4=C(Cl)C=CC=C4Cl)C=C1	4.17	7.42	7.42	461	511	436
COc1cccc2c1C(=O)c1c(O)c3c(c(O)c1C2=O)C[C@@](O)(C(C)=O)C[C@@H]3O[C@H]1C[C@H](N)[C@H](O)[C@H](C)O1	4.68	2.35	2.95	369	350	305
CN1CCN(C(=O)c2ccc3cc(CCNc4ncnc5ccc(C#N)cc45)ccc3c2)CC1	2.95	16.6	4.17	436	499	397
CN(C)C[C@@H]1CC[N]2C=C(C3=C2C=CC=C3)C/4=C(/C(=O)NC4=O)C5=C[N](CCO1)C6=C5C=CC=C6	7.42	8.33	14.8	368	389	292
CCN1CCN(Cc2ccc(-c3cc4c(N[C@H](C)c5ccccc5)ncnc4[nH]3)cc2)CC1	18.6	23.5	23.5	492	534	452
C[C@@]12C(=O)OC(=O)[C@]1(C)[C@H]1CC[C@@H]2O1	4.68	10.5	7.42	434	431	442
CN1CCN(c2cc(C(=O)Nc3ccc4c(c3)-c3c(c(C(N)=O)nn3-c3ccc(F)cc3)CC4)c(Cl)cn2)CC1	10.5	20.9	9.34	480	521	427
Fc1ccc2[nH]ccc2c1-c1nc(N2CCOCC2)c2sc(CN3CCN(CC4CC4)CC3)cc2n1	20.9	26.3	18.6	487	462	482
Cn1cc(-c2cnn3c(N)c(Br)c([C@@H]4CCCNC4)nc23)cn1	18.6	20.9	20.9	471	568	483
COc1cccc2c1C(=O)c1c(O)c3c(c(O)c1C2=O)C[C@@](O)(C(=O)CO)C[C@@H]3O[C@H]1C[C@H](N)[C@@H](O)[C@H](C)O1	18.6	8.33	10.5	510	507	424
NC(=O)c1cccc2c(NC(CN3CCC3)c3ccc(Cl)c(C(F)(F)F)c3)ncnc12 (centres undefined)	1.18	0.332	0.263	223	160	266
COc1ccc(C(=O)c2c(C)n(CCN3CCOCC3)c3ccccc23)cc1	5.25	5.25	10.5	402	431	389
CCOC1=CC=CC=C1N\2C(=O)C3=C(C=CC=C3)\N=C2C(C)N4CCN(CC4)C(=O)COC5=CC=C(Cl)C=C5 (centres undefined)	5.9	2.95	0.934	448	509	373
Fc1ccc(C(OCCN2CCN(CCCc3ccccc3)CC2)c2ccc(F)cc2)cc1	14.8	18.6	16.6	423	490	471
C=CC(=O)Nc1cc2c(Nc3ccc(F)c(Cl)c3)ncnc2cc1C#CC(C)(C)N1CCN(C)CC1	7.42	7.42	10.5	477	520	307
c1cc(Nc2cc(C3CC3)n[nH]2)nc(Nc2ccc3nc[nH]c3c2)n1	7.42	0.332	1.05	462	408	419
O=C(CCCCCCNC(=O)c1cnc(N(c2ccccc2)c2ccccc2)nc1)NO	20.9	11.8	18.6	525	552	364
CCN1C(=O)\C(=C/C2=C(C)N=C(N)N=C12)C3=CC=N[NH]3	5.25	3.32	4.17	431	455	397
CCc1cnn2c(NCc3ccc[n+]([O-])c3)cc(N3CCCC[C@H]3CCO)nc12	0.00417	0.0059	0.00263	158	167	177
COc1ccc(CCN(C)CCCOc2ccc([S+](=O)([O-])c3c(C(C)C)c4ccccc4n3C)cc2)cc1OC	13.2	20.9	10.5	427	565	448
CNC(=O)c1ccc(Nc2ncc(C(F)(F)F)c(NCc3nccnc3N(C)[S+](C)(=O)[O-])n2)cc1	3.32	1.86	3.32	353	336	354
C[N]1C=NC=C1C(N)(C2=CC=C(Cl)C=C2)C3=CC\4=C(C=C3)N(C)C(=O)\C=C4C5=CC(=CC=C5)Cl (centres undefined)	6.61	11.8	11.8	397	298	336
C/C=C1\NC(=O)[C@H]2CSSCC/C=C\[C@H](CC(=O)N[C@H](C(C)C)C(=O)N2)OC(=O)[C@H](C(C)C)NC1=O	0.118	0.0235	0.00742	293	224	235
CC(C)c1cnn2c(NCc3ccccc3)cc(N[C@@H](CO)[C@H](O)CO)nc12	1.48	0.295	0.372	395	326	372

— the supplement of paper PMC10949913
